Laboratory results reported in patent US8557797B2, “Triazolopyridine derivatives and their therapeutic use” (Chiesi Farmaceutici S.p.A., priority 2009, dated 2013).

Tests used:
p38α = target: T1, p38α (Homo sapiens, UniProt Q16539); experiment: p38 Kinase Assay (ATF-2 phosphorylation ELISA); type: biochemical; settings: 2 h pre-incubation, ATP 250 μM, 1% DMSO; read-out: p38α inhibition (IC50 values)
T1 construct: purchased Calbiochem 559324; host or cells: E. coli
Experimental: Human recombinant p38 enzyme expressed in E. coli and activated by incubation with MKK6 enzyme (Calbiochem #559324) is used as source of enzyme activity.
The assay is carried in high binding, clear, flat bottom 96 well assay plates which have been coated with recombinant ATF-2 (Biosource #PHF0043). Test compounds are incubated with p38 kinase for 2 h prior to initiating the kinase assay by the addition of ATP to obtain an assay concentration of 250 μM. Phosphorylation of ATF-2 is detected and quantified using an ELISA. This consists of sequential incubation in the presence of anti-phospho-ATF2, biotinylated anti-IgG and streptavidin-HRP. Incubation with an HRP chromogenic substrate (TMB) results in absorbance that is proportional to the amount of phosphorylated substrate produced. Absorbance is detected using a multiwell plate reader.
Compounds are diluted in DMSO prior to addition to assay buffer, the final DMSO concentration in the assay being 1%.
The IC50 is defined as the concentration at which a given compound achieves 50% inhibition of control.

[1] = system: TNFα release from LPS activated THP-1 cells or PBMC's; experiment: p38 Functional Assay (TNFα release after LPS); type: cell-based; settings: Homo sapiens, 1 h pre-treatment, 0.3% DMSO, read-out: EC50 (inhibition of TNFα release)
Experimental: Inhibition of cellular p38 depresses the release of TNFα, a functional response which is quantified by measurement of the amount of TNFα in the supernatants of LPS activated THP-1 cells (an immortalised monocytic cell line) or peripheral blood mononuclear cells (PBMC's) isolated from freshly drawn human blood.
Cells seeded in 96 well plates are pre-treated by the addition of p38 inhibitors for 1 h followed by addition of lipopolysaccharide (LPS) to activate cytokine production and release. The amount of TNFα released into the cell supernatants is quantified using an R&D Systems enzyme linked immunosorbant assay (ELISA) kit (product DY210) following the manufacturers instructions.
Compounds are diluted in DMSO prior to addition, the final DMSO concentration in the assay being 0.3%. The EC50 is defined as the concentration at which a given compound achieves 50% inhibition of the control.

T1 sequence (Q16539 whole entry): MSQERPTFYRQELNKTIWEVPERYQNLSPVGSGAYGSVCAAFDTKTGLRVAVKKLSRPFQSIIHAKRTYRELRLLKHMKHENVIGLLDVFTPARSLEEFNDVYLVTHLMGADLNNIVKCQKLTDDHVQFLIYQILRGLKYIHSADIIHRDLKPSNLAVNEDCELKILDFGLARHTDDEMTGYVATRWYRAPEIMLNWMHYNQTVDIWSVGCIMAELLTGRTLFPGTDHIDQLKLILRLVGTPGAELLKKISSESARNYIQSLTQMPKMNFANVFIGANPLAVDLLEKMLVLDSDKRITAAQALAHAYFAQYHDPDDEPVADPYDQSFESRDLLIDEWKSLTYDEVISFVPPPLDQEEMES

Compound | IC50 (p38α) | EC50 [1]
O=C(NCC1CC1)c1cccc(Sc2ccc3nnc(-c4cccc(OCCN5CCOCC5)c4)n3c2)c1 [Example 1, N-Cyclopropylmethyl-3-{3-[3-(2-morpholin-4-yl-ethoxy)-phenyl]-[1,2,4]triazolo[4,3-a]pyridin-6-ylsulfanyl}-benzamide] | 500 to 2000 nM | 500 to 7000 nM
O=C(Nc1cccc(N2CCOCC2)c1)c1cccc(Sc2ccc3nnc(-c4cccc(OCCN5CCOCC5)c4)n3c2)c1 [Example 2] | 100 to 500 nM | 100 to 500 nM
O=C(Nc1ccnc(N2CCOCC2)c1)c1cccc(Sc2ccc3nnc(-c4cccc(OCCN5CCOCC5)c4)n3c2)c1 [Example 3] | 100 to 500 nM | 10 to 100 nM
Cc1ccc(-n2nc(C(C)(C)C)cc2NC(=O)Cc2ccc(Sc3ccc4nnc(C(C)C)n4c3)cc2)cc1 [Example 6] | < 10 nM | 10 to 100 nM
Cc1ccc(-n2nc(C(C)(C)C)cc2NC(=O)Cc2ccc(Sc3ccc4nnc(-c5cccc(OCc6ccccc6)c5)n4c3)cc2)cc1 [Example 8] | 10 to 100 nM | 100 to 500 nM
Cc1ccc(-n2nc(C(C)(C)C)cc2NC(=O)Nc2ccc(Sc3ccc4nnc(-c5cccc(OCc6ccccc6)c5)n4c3)cc2)cc1 [Example 11] | 500 to 2000 nM | 100 to 500 nM
Cc1ccc(-n2nc(C(C)(C)C)cc2NC(=O)Nc2ccc(Sc3ccc4nnc(-c5cccc(OCCN6CCOCC6)c5)n4c3)nc2)cc1 [Example 12, 1-(5-tert-Butyl-2-p-tolyl-2H-pyrazol-3-yl)-3-(6-{3-[3-(2-morpholin-4-yl-ethoxy)-phenyl]-[1,2,4]triazolo[4,3-a]pyridin-6-ylsulfanyl}-pyridin-3-yl)-urea] | 10 to 100 nM | 10 to 100 nM
Cc1ccc(-n2nc(C(C)(C)C)cc2NC(=O)Nc2ccc(Sc3ccc4nnc(-c5cccc(OCCN6CCOCC6)c5)n4c3)cn2)cc1 [Example 13, 1-(5-tert-Butyl-2-p-tolyl-2H-pyrazol-3-yl)-3-(5-{3-[3-(2-morpholin-4-yl-ethoxy)-phenyl]-[1,2,4]triazolo[4,3-a]pyridin-6-ylsulfanyl}-pyridin-2-yl)-urea] | 100 to 500 nM | 10 to 100 nM
Cc1ccc(-n2nc(C(C)(C)C)cc2NC(=O)N[C@H]2CC[C@H](Oc3ccc4nnc(-c5cccc(OCCN6CCOCC6)c5)n4c3)CC2)cc1 [Example 14, 1-(5-tert-Butyl-2-p-tolyl-2H-pyrazol-3-yl)-3-(trans-4-{3-[3-(2-morpholin-4-yl-ethoxy)-phenyl]-[1,2,4]triazolo[4,3-a]pyridin-6-yloxy}-cyclohexyl)-urea] | 10 to 100 nM | 10 to 100 nM
Cc1ccc(-n2nc(C(C)(C)C)cc2NC(=O)N[C@H]2CC[C@@H](Oc3ccc4nnc(-c5cccc(OCCN6CCOCC6)c5)n4c3)CC2)cc1 [Example 15] | 100 to 500 nM | 500 to 7000 nM
CC(C)(C)c1cc(NC(=O)N[C@H]2CC[C@H](Oc3ccc4nnc(-c5cccc(OCCN6CCOCC6)c5)n4c3)CC2)n(-c2ccccc2)n1 [Example 16] | 10 to 100 nM | 500 to 7000 nM
Cc1ccc(-n2nc(C(C)(C)C)cc2NC(=O)CN2CCC(Oc3ccc4nnc(-c5cccc(OCCN6CCOCC6)c5)n4c3)CC2)cc1 [Example 17, N-(5-tert-Butyl-2-p-tolyl-2H-pyrazol-3-yl)-2-(4-{3-[3-(2-morpholin-4-yl-ethoxy)-phenyl]-[1,2,4]triazolo[4,3-a]pyridin-6-yloxy}-piperidin-1-yl)-acetamide] | 500 to 2000 nM | 500 to 7000 nM
Cc1ccc(-n2nc(C(C)(C)C)cc2NC(=O)Cc2ccc(Sc3ccc4nnc(-c5cccc(O)c5)n4c3)cc2)cc1 [Example 18, N-(5-tert-Butyl-2-p-tolyl-2H-pyrazol-3-yl)-2-{4-[3-(3-hydroxy-phenyl)-[1,2,4]triazolo[4,3-a]pyridin-6-ylsulfanyl]-phenyl}-acetamide] | < 10 nM | 10 to 100 nM
CC(C)c1nnc2ccc(Sc3ccc(CC(=O)Nc4cc(C(C)(C)C)nn4-c4ccc(OCCN5CCOCC5)cc4)cc3)cn12 [Example 19, N-{5-tert-Butyl-2-[4-(2-morpholin-4-yl-ethoxy)-phenyl]-2H-pyrazol-3-yl}-2-[4-(3-isopropyl-[1,2,4]triazolo[4,3-a]pyridin-6-ylsulfanyl)-phenyl]-acetamide] | 500 to 2000 nM | 500 to 7000 nM

Further lines, with some results ahead:

IC50 (p38α) | Compound | EC50 [1]
10 to 100 nM | CC(C)c1nnc2ccc(Sc3ccc(CC(=O)Nc4cc(C(C)(C)C)nn4-c4ccc(O)cc4)cc3)cn12 [Example 20, N-[5-tert-Butyl-2-(4-hydroxy-phenyl)-2H-pyrazol-3-yl]-2-[4-(3-isopropyl-[1,2,4]triazolo[4,3-a]pyridin-6-ylsulfanyl)-phenyl]-acetamide] | 10 to 100 nM
10 to 100 nM | Cc1ccc(-n2nc(C(C)(C)C)cc2NC(=O)N[C@H]2CC[C@H](Oc3ccc4nnc(C(C)C)n4c3)CC2)cc1 [Example 21, 1-(5-tert-Butyl-2-p-tolyl-2H-pyrazol-3-yl)-3-[4-(3-isopropyl-[1,2,4]triazolo[4,3-a]pyridin-6-yloxy)-cyclohexyl]-urea] | 10 to 100 nM
500 to 2000 nM | Cc1ccc(-n2nc(C(C)(C)C)cc2NC(=O)C[C@H]2CC[C@H](Oc3ccc4nnc(C(C)C)n4c3)CC2)cc1 [Example 22, N-(5-tert-Butyl-2-p-tolyl-2H-pyrazol-3-yl)-2-[4-(3-isopropyl-[1,2,4]-triazolo[4,3-a]pyridin-6-yloxy)-cyclohexyl]-acetamide] | 500 to 7000 nM
< 10 nM | Cc1ccc(-n2nc(C(C)(C)C)cc2NC(=O)Cc2ccc(Oc3ccc4nnc(C(C)C)n4c3)cc2)cc1 [Example 23, N-(5-tert-Butyl-2-p-tolyl-2H-pyrazol-3-yl)-2-[4-(3-isopropyl-[1,2,4]triazolo[4,3-a]pyridin-6-yloxy)-phenyl]-acetamide] | < 10 nM
100 to 500 nM | Cc1ccc(-n2nc(C(C)(C)C)cc2NC(=O)C(C)c2ccc(Sc3ccc4nnc(C(C)C)n4c3)cc2)cc1 (centres unmarked) [Example 24, N-(5-tert-Butyl-2-p-tolyl-2H-pyrazol-3-yl)-2-[4-(3-isopropyl-[1,2,4]triazolo[4,3-a]pyridin-6-ylsulfanyl)-phenyl]-propionamide] | –
< 10 nM | Cc1ccc(-n2nc(C(C)(C)C)cc2NC(=O)N[C@H]2CC[C@H](Oc3ccc4nnc(C5CCCC5)n4c3)CC2)cc1 [Example 25, 1-(5-tert-Butyl-2-p-tolyl-2H-pyrazol-3-yl)-3-[4-(3-cyclopentyl-[1,2,4]triazolo[4,3-a]pyridin-6-yloxy)-cyclohexyl]-urea] | –
10 to 100 nM | CC(C)c1nnc2ccc(Sc3ccc(CC(=O)Nc4cc(C(C)(C)C)nn4-c4cccc(OCCc5ccncc5)c4)cc3)cn12 [Example 27, N-{5-tert-Butyl-2-[3-(2-pyridin-4-yl-ethoxy)-phenyl]-2H-pyrazol-3-yl}-2-[4-(3-isopropyl-[1,2,4]triazolo[4,3-a]pyridin-6-ylsulfanyl)-phenyl]-acetamide] | –
10 to 100 nM | Cc1ccc(-n2nc(C(C)(C)C)cc2NC(=O)c2cccc(Sc3ccc4nnc(C(C)C)n4c3)c2)cc1 [Example 28] | –
10 to 100 nM | Cc1ccc(-n2nc(C(C)(C)C)cc2NC(=O)NC2CCC(Oc3ccc4nnc(-c5ccccn5)n4c3)CC2)cc1 (centres unmarked) [Example 29, 1-(5-tert-Butyl-2-p-tolyl-2H-pyrazol-3-yl)-3-[4-(3-pyridin-2-yl-[1,2,4]triazolo[4,3-a]pyridin-6-yloxy)-cyclohexyl]-urea] | –
